# Measured values from publication doi:10.1101/2025.03.26.645438v1 (bioRxiv, 2025).
# Key:
# Pharmacokinetics = type: in vivo, rat; conditions: SD male rats, single dose 0.05 mg/kg, plasma, LC-MS/MS, WinNonlin, mean n=3
# [1] = system: diet-induced obese (DIO) mice; experiment: Weight loss in diet-induced obese; type: in vivo, mouse; conditions: 10 nmol/kg
# [2] = system: diabetic db/db mouse model; experiment: Long-term glucose-lowering after multiple doses; type: in vivo; conditions: db/db mice, kidney injury marker after multiple administration 10 nmol/kg
# [3] = system: diabetic db/db mouse model; experiment: Acute glucose-lowering after single dose in db/db mice; type: in vivo
substance,measurement,setting,value
Semaglutide,half-life (T1/2),Pharmacokinetics,8.17 h
same,"mean residence time (MRT0-t), 0-[…]",Pharmacokinetics,14.21 h
same,fat index,[1]; multiple administrations,reduced
same,body weight reduction,"[1]; multiple administrations over 21 days, n=5",21.54%
same,serum creatinine (Scr),[2],significantly reduced
same,urinary albumin levels,[2],significantly reduced
same,time up to which the decrease of non-fasting blood glucose persisted,[3]; single dose 10 nmol/kg,24 h
same,lowest non-fasting blood glucose level,"[3]; single dose 10 nmol/kg subcutaneous, mean±SD, n=6, SD",15.57 ± 5.16 mmol/L
same,acute glucose-lowering effect compared with model group,"[3]; single dose 10 nmol/kg, non-fasting glucose 0-120 hours",comparable glucose-lowering effects
